# Laboratory results from US20190046507A1, “COMPOUNDS FOR THE TREATMENT OF MALARIA” (Merck Sharp & Dohme Corp., priority 2016, published 2019).
# System: asexual P. falciparum 3D7 parasites
# Test: P. falciparum 3D7 growth inhibition assay with LDH activity readout (Assay 1)
# Type: cell-based
# Settings: Plasmodium falciparum; 3D7 strain, 72 h incubation, LDH activity read by absorbance at 650 nm
# Protocol: A modified version of the assay described in Gamo, F. J., Sanz, L. M., Vidal, J., de Cozar, C., Alvarez, E., Lavandera, J. L., Vanderwall, D. E., Green, D. V., Kumar, V., Hasan, S., Brown, J. R., Peishoff, C. E., Cardon, L. R., Garcia-Bustos, J. F., Nature, 465 (2010) 305-310 (Gamo et al.) was used to assess the activity of compounds against asexual P. falciparum 3D7 parasites. Compounds were pre-dispensed in 384-well plates, RPMI/AlbuMAX growth media was added and P. falciparum inoculated. Plates were incubated for 72 h and then frozen at −80° C. overnight. LDH activity was quantified with the modified cofactor 3-acetylpyridine adenine dinucleotide (APAD) (Sigma Aldrich) by measuring absorbance of the tetrazolium indicator nitro blue tetrazolium (NBT) (Sigma Aldrich) at 650 nm.
# An inoculum of synchronous P. falciparum (3D7 strain) parasitized red blood cells (PRBC) at 0.7% parasitaemia and 2% haematocrit in RPMI-1640, 5% AlbuMAX, 2% D-sucrose, 0.3% glutamine and 150 μM hypoxanthine was used for the assay.
# Compound master plates (384-well) were prepared by a 10 pt serial dilution of compounds, from 1 mM to 50.8 nM, in columns 3-12 and 13-22. DMSO was dispensed into columns 1 and 23 of the compound master plate to be used as the positive growth control (100% viability). […] Intermediate compound dilution plates were prepared by dispensing 1 μl from each well of the compound master plate into 11.5 μl of RPMI/AlbuMAX growth media. Duplicate assay plates (384-well) were then prepared by dispensing 0.5 μL of compound from the intermediate dilution plates into 9.5 μl of RPMI/AlbuMAX growth media. The parasite inoculum (30 μL) was dispensed into the assay plates containing compounds using a Multidrop dispenser (Thermo Scientific) such that the final assay volume was 40 μL and final compound concentration was 1 μM-0.05 nM (the volume of compound addition can be adjusted to the preferred and agreed screening concentration). The final DMSO concentration was 0.1% (ideally 0.2% to limit toxicity to parasites), but this is dependent on volume of compound DMSO stock solution that can be supplied. Plates were incubated at 37° C. for 72 h in an atmosphere of 5% CO2, 5% O2, […].
# After 72 h of incubation, plates were frozen at −80° C. overnight and then thawed at room temperature for at least 4 h. To evaluate LDH activity, 45 μL of freshly made reaction mix (174 mM sodium L-lactate (Sigma Aldrich), 214 μM 3-acetyl pyridine adenine dinucleotide (APAD) (Sigma Aldrich), 270 μM nitro blue tetrazolium chloride (NBT) (Sigma Aldrich), 4.35 U/mL diaphorase (from Clostridium kluyveri) (Sigma Aldrich), 0.7% Tween 20, 100 mM Tris-HCl pH 7.5) was dispensed using a Multidrop dispenser (Thermo Scientific). Plates were shaken to ensure mixing and absorbance at 650 nm was monitored using a Perkin Elmer Envision plate reader after 30 min of incubation at room temperature. Data were normalized to percent growth inhibition using positive and negative controls, and analysed using TIBCO Spotfire software. […]
row,SMILES,IC50 [nM]
1,CC(C)CC[C@]1(c2ccccc2)NC(=N)N(Cc2ccc(C(C)(C)C)c(C(=O)N(C)Cc3ccon3)c2)C1=O [Compound 10],120
2,CC(C)CC[C@]1(c2ccccc2)NC(=N)N(Cc2ccc(C(C)(C)C)c(C(=O)N(C)Cc3noc(C4CC4)n3)c2)C1=O [Compound 17],310
3,Cc1ccc(C2(CCC(C)C)NC(=N)N(Cc3ccc(C(C)(C)C)c(C(=O)N4Cc5cncnc5C4)c3)C2=O)cc1 (stereo not shown) [Compound 14],225
4,CC(C)CC[C@]1(c2ccccc2)NC(=N)N(Cc2ccc(C(C)(C)C)c(C(=O)N(C)C(C)c3ccncc3)c2)C1=O (stereo partly shown) [Compound 7],25.1
5,Cc1ccc(CN2C(=N)NC(CC(C)C)(c3ccccc3)C2=O)cc1C(=O)NC1CC1 (stereo not shown) [Compound 16],240
6,CC(C)CC[C@]1(c2ccccc2)NC(=N)N(Cc2ccc(C(C)(C)C)c(C(=O)N3CCOC[C@@H]3C)c2)C1=O [Compound 8],56.6
7,CC(C)CC[C@]1(c2ccccc2)NC(=N)N(Cc2ccc(C(F)(F)F)c(C(=O)N3CC(O)C(F)C3)c2)C1=O (stereo partly shown) [Compound 3],9.6
8,Cc1ccc(C2(c3ccc(C)cc3)NC(=N)N(Cc3ccc(C(C)(C)C)c(C(=O)N4Cc5nccnc5C4)c3)C2=O)cc1 [Compound 13],223
9,CCOC(=O)NC1CCN(C(=O)c2cc(C)cc(CN3C(=N)NC(c4ccccc4)(c4ccccc4)C3=O)c2)CC1 [Compound 18],313
10,CC(C)CC[C@]1(c2ccccc2)NC(=N)N([C@@H]2CCc3ccc(C(=O)N4Cc5nccnc5C4)cc32)C1=O [Compound 6],21.8
11,N=C1NC(c2ccc(F)cc2)(C2CCCCC2)C(=O)N1Cc1ccc(C(F)(F)F)c(C(=O)N2Cc3nccnc3C2)c1 (stereo not shown) [Compound 4],9.7
12,CC(C)(C)c1ccc(CN2C(=N)NC(c3ccccc3)(c3ccccc3)C2=O)cc1C(=O)N1Cc2nccnc2C1 [Compound 15],239
13,CC(C)CC[C@]1(c2ccccc2)NC(=N)N(Cc2ccc(C(C)(C)C)c(C(=O)N3CCn4ccnc4C3)c2)C1=O [Compound 5],21.2
14,Cc1cc(CN2C(=N)NC(c3ccccc3)(c3ccccc3)C2=O)cc(C(=O)N2CCNC(=O)C2)c1 [Compound 20],356
15,CC(C)CC[C@]1(c2ccccc2)NC(=N)N(Cc2ccc(C(C)(C)C)c(C(=O)NCc3cccnc3)c2)C1=O [Compound 11],172
16,CC(=O)N1CCN(C(=O)c2cc(F)cc(CN3C(=N)NC(c4ccccc4)(c4ccccc4)C3=O)c2)CC1 [Compound 1],4.5
17,N=C1NC(C[C@@H]2CCCO2)(c2ccccc2)C(=O)N1Cc1ccc(C(F)(F)F)c(C(=O)N2Cc3nccnc3C2)c1 (stereo partly shown) [Compound 2],5.8
18,Cc1ccc([C@@]2(CC3CC3)NC(=N)N(Cc3ccc(C(C)(C)C)c(C(=O)N4CCC(C)(C)C4)c3)C2=O)cc1 [Compound 9],86.6
19,Cc1ccc(C2(C3CCCCC3)NC(=N)N(Cc3ccc(C(C)(C)C)c(C(=O)N4Cc5ccccc5C4)c3)C2=O)cc1 (stereo not shown) [Compound 12],221
